{
  "source": "paper PMC10475101",
  "about": "“Selective steroidogenic cytochrome P450 haem iron ligation by steroid-derived isonitriles” (Communications Chemistry, 2023)",
  "key": {"CYP17A1": {"target": "T1, CYP17A1 (Homo sapiens, UniProt P05093)", "T1 construct": "made in house", "T1 sequence (P05093 24-508 limits assumed)": "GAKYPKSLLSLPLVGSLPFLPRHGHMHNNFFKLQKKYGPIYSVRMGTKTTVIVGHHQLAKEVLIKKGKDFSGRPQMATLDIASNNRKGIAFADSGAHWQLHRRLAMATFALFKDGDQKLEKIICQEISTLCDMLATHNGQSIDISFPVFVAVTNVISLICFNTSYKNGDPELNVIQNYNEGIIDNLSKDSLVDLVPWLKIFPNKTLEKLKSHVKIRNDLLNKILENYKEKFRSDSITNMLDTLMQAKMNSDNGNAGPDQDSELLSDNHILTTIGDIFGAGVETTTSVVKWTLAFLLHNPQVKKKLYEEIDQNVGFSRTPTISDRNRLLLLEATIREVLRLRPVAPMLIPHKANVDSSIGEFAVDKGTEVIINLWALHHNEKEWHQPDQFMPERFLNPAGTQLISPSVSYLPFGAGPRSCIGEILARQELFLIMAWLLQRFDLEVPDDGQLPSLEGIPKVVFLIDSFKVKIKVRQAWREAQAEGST", "assay": "biochemical", "description": "Metabolic activity of CYP17A1 was evaluated by measuring 17α-hydroxylation of progesterone as detected by HPLC with UV detection at 240 nm. A 1:4 ratio of CYP17A1 to recombinant NADPH-cytochrome P450 reductase was mixed and incubated on ice for 20 min. […] Reaction vials were warmed to 37 °C for 3 min, then catalysis was initiated by adding NADPH to a final concentration of 1 mM. After 10 min, metabolism was quenched by adding 300 µL of 20% trichloroacetic acid and placed on ice. The reaction vials were centrifuged to pellet the precipitated protein, then the supernatant was injected onto a C18 column for HPLC identification of product. Metabolite elution was normalized to β-estradiol as an internal standard. A standard curve of known product concentrations was used to convert normalized area under curve to amount of product produced. A four-parameter variable-slope equation was used to fit the data and calculate IC50 values for inhibitors using GraphPad Prism 9.\n196 by HPLC with UV detection at 240 nm. A 1:4 ratio of CYP17A1 to recombinant NADPH-cytochrome P450\n197 reductase was mixed and incubated on ice for 20 minutes. This mixture was added to buffer (50 mM Tris, pH\n199 Reaction vials were warmed to 37 °C for three minutes, then catalysis was initiated by adding NADPH to a\n200 final concentration of 1 mM. After 10 minutes, metabolism was quenched by adding 300 µL of 20%\n201 trichloroacetic acid and placed on ice. The reaction vials were centrifuged to pellet the precipitated protein,\n202 then the supernatant was injected onto a C18 column (Phenomenex, Luna, 50 x 4.6 mm) for HPLC. The 30-\n203 minute HPLC method ran at 0.8 mL/min and started with a mobile phase of 60% acetonitrile, 40% water with\n204 0.2% acetic acid for five minutes, in creased to 80% acetonitrile over 10 minutes, held at 80% acetonitrile for\n205 five minutes, 100% acetonitrile for five minutes, then returned to 60% acetonitrile to prepare for the next\n206 sample. Metabolite elution was normalized to β-estradiol as an internal standard. A standard curve of known\n207 product concentrations was used to convert normalized area under curve to amount of product produced. A\n208 four-parameter variable-slope equation (Y=Ymin + (Ymax-Ymin)/(1+(IC50/X)^(Hill Slope))) was used to fit the data\n209 and calculate IC50 values for inhibitors using GraphPad Prism 9."}, "CYP3A4": {"target": "T2, CYP3A4 (Homo sapiens, UniProt P08684)", "T2 construct": "made in house", "T2 sequence (P08684 23-503 limits assumed)": "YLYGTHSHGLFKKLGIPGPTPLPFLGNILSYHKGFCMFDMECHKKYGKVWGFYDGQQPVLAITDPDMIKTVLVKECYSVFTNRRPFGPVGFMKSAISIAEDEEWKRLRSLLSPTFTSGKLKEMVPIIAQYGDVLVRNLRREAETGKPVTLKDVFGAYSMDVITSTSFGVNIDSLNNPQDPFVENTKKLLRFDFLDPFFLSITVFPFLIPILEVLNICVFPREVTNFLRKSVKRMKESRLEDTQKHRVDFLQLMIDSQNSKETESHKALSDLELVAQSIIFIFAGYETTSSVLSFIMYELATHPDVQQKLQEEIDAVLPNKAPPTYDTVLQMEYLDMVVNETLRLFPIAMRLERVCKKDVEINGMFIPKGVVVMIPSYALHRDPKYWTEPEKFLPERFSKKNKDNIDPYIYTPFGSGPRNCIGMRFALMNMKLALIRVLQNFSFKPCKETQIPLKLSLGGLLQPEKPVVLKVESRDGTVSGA", "format": "biochemical", "settings": "concentrations up to 100 µM", "protocol": "(Adapted from Bart & Scott)[28]. Metabolic activity of CYP3A4 was evaluated by measuring metabolism of nifedipine to dehydronifedipine […], as detected by HPLC with UV detection at 254 nm. Reactions were carried out in amber microcentrifuge tubes (NFP is light sensitive) in a final volume of 150 μl. A 1:2 ratio of CYP3A4 to recombinant NADPH-cytochrome P450 reductase was mixed and incubated at room temperature for 20 min. This mixture was added to buffer (40 mM HEPES, 30 mM MgCl2, pH 7.4) containing 0.1 mM NFP and increasing concentrations of 1c (0–100 µM). Reaction vials were warmed to 37 °C for 3 min, then catalysis was initiated by adding NADPH to a final concentration of 1 mM. After 20 min, metabolism was quenched by adding 50 µL acetonitrile and placed on ice. […]\n187 a baseline absorbance reading from 400 to 500 nm using a UV-visible scanning spectrophotometer, of a 1cm […]\n190 phosphate buffer (pH 7.4), 20% glycerol, and 100 mM sodium chloride). A small quantity of sodium dithionite\n191 (spatula tip-full) was then added to the cuvette, and the spectra were recorded periodically over time to […]\n195 Metabolic activity of CYP17A1 was evaluated by measuring 17α-hydroxylation of progesterone as detected […]\n212 dehydronifedipine, as detected by HPLC with UV detection at 254 nm. […]"}},
  "data": [
    {"compound": "[C-]#[N+][C@H](C)[C@H]1CC[C@H]2[C@@H]3CC[C@H]4C[C@@H](OC=O)CC[C@]4(C)[C@H]3CC[C@]12C", "note": "[Compound 1, 3β-formyl-5α-pregnanolone-(R)-20-isonitrile]", "values": [
      {"measurement": "IC50", "setting": "CYP17A1", "result": 1.3, "unit": "µM"},
      {"measurement": "slope of the inhibition curve", "setting": "CYP17A1; CYP17A1 progesterone hydroxylation", "result": 2.4},
      {"measurement": "inhibition of CYP3A4-catalyzed nifedipine oxidation", "setting": "CYP3A4", "result": "no inhibition"}
    ]}
  ]
}
